Source: patent US20240150286A1, “PEROXISOME PROLIFERATOR-ACTIVATED RECEPTOR GAMMA (PPARy) LIGANDS AND METHODS OF USE AS TREATMENTS FOR INSULIN RESISTANCE, OBESITY, FATTY LIVER DISEASE, AND TYPE 2 DIABETES” (The Board of Regents of the University of Oklahoma, priority 2022, published 2024)

System: primary preadipocytes isolated from iWAT and eWAT
Assay: Browning gene expression in differentiated primary preadipocytes
Format: cell-based, mouse
Settings: differentiated with WO95E vs DMSO
Description: 3T3-L1 preadipocytes were differentiated. In brief, cells at around 60%-70% confluence were induced for differentiation with DMEM containing 10% FBS, 1 μg/ml insulin, 1 μM dexamethasone, and 0.5 mM IBMX for 48 h in the presence or absence of compounds and were then exposed in maintenance medium (1 μg/mL insulin in 10% FBS/DMEM) containing compounds. The medium was renewed every 2 days for total 8 days of differentiation when the cells became differentiated and lipid droplets were apparent. For primary preadipocyte differentiation, isolation of primary preadipocytes was performed. Briefly, fat depots were digested in PBS containing collagenase D (1.5 U/ml) at 37° C. for 40-45 min. The primary cells were filtered through 70 μm cell strainer and centrifuge at 700 g to collect stromal vascular fraction (SVF). The SVF cell pellets were plated on collagen coated plates. […]
Total RNA (2 μg) was isolated from tissues or cells using TRIzol reagents (Life Technologies) and reverse transcribed using oligo d(T) primers (New England Biosystems) and SuperScript IV reverse transcription kit (Applied Biosystems). qPCR was performed in a CFX96 Touch Real-Time PCR detection system using SYBR Green mix (Applied Biosystems). […] Relative mRNA expression was determined by the ΔΔCt method normalized to TBP mRNA. […]

Compound: Cc1c(C)n(Cc2ccc(-c3ccccc3C(=O)O)cc2)c2ccc(C(=O)NCc3cccc(O)c3)cc12 [WO95E, 4′-((5-((3-hydroxybenzyl)carbamoyl)-2,3-dimethyl-1H-indol-1-yl)methyl)-[1,1′-biphenyl]-2-carboxylic acid]
- expression levels of Prdm16, UCP1, PCG1α, Ppara in iWAT adipocytes: significantly increased
